Laboratory results taken from ChEMBL document CHEMBL3763046 (Bioorg Med Chem, 2016).

What was measured:
HT-29 [1] = assay: Cytotoxicity against human HT-29 cells after 72 hrs by MTT assay; settings: HT-29, 72 h
MDA-MB-231 = assay: Cytotoxicity against human MDA-MB-231 cells after 72 hrs by MTT assay; format: functional, cell-based; settings: MDA-MB-231, 72 h
[2] = Cytotoxicity against human MKN45 cells after 72 hrs by MTT assay; settings: MKN-45, 72 h
PBL = assay: Cytotoxicity against human PBL cells after 72 hrs by MTT assay; format: cell-based
A549 = assay: Cytotoxicity against human A549 cells after 72 hrs by MTT assay; format: functional, cell-based; settings: A549, 72 h
Mus musculus [3] = assay: Cmax in mouse at 35 mg/kg, po administered as single dose measured at 0.25 to 24 hrs by LC/MS/MS analysis; format: ADME, organism-based; parameters: dose 35 mg/kg, route oral; settings: in vivo
[4] = Apparent volume of distribution during terminal phase in mouse at 35 mg/kg, po administered as single dose measured at 0.25 to 24 hrs by LC/MS/MS analysis; format: ADME, organism-based; settings: in vivo, read-out: Vz/F
Mus musculus [5] = assay: AUC (0 to infinity) in mouse at 20 mg/kg, iv or 35 mg/kg, po administered as single dose by LC/MS/MS analysis; format: ADME, organism-based; settings: in vivo
Mus musculus [6] = assay: Half life in mouse at 20 mg/kg, iv or 35 mg/kg, po administered as single dose by LC/MS/MS analysis; format: ADME, organism-based; settings: in vivo
Mus musculus [7] = assay: Tmax in mouse at 35 mg/kg, po administered as single dose by LC/MS/MS analysis; format: ADME, organism-based; settings: in vivo
[8] = Mean residence time (0 to infinity) in mouse at 20 mg/kg, iv or 35 mg/kg, po administered as single dose by LC/MS/MS analysis; format: ADME, organism-based; settings: in vivo
Mus musculus [9] = assay: Toxicity in Balb/c mouse xenografted with human MKN45 cells assessed as change in body weight at 50 mg/kg, po bid for 24 days; format: organism-based, MKN-45; settings: in vivo, 576 h
HT-29 [10] = assay: Antitumor activity against human HT-29 cells xenografted in Balb/c mouse assessed as tumor growth inhibition at 50 mg/kg, po bid for 27 days relative to control; format: functional; parameters: scale not given: the % may be the effect or the level left
[11] = Antitumor activity against human MKN45 cells xenografted in Balb/c mouse assessed as tumor growth inhibition at 50 mg/kg, po bid for 24 days relative to control; format: functional, MKN-45; parameters: scale not given: the % may be the effect or the level left
Mus musculus [12] = assay: Toxicity in Balb/c mouse xenografted with human HT-29 cells assessed as change in body weight at 50 mg/kg, po bid for 27 days; format: organism-based; settings: in vivo, 648 h

Structure (SMILES)	IC50 (HT-29 [1])	IC50 (MDA-MB-231)	IC50 [2]	IC50 (PBL)	IC50 (A549)	also measured
COc1cc2c(Oc3ccc(/C=N/NC(=O)Nc4ccc(F)c(F)c4)cc3F)ccnc2cc1OCCCN1CCCCC1	490 nM	960 nM	320 nM	–	–	–
COc1ccc(/C=N/NC(=O)Nc2ccc(Oc3ccnc4cc(OCCCN5CCC(C)CC5)c(OC)cc34)c(F)c2)cc1	610 nM	1000 nM	470 nM	23000 nM	430 nM	–
COc1cc2c(Oc3ccc(NC(=S)N/N=C/c4ccccc4)cc3F)ccnc2cc1OCCCN1CCCCC1	210 nM	1200 nM	710 nM	78400 nM	330 nM	Cmax (Mus musculus [3]): 87 ng/mL; Vd/F [4]: 107 L/kg; AUC (Mus musculus [5]): 7340 ng·h/mL; t1/2 (Mus musculus [6]): 13.48 h; Tmax (Mus musculus [7]): 12 h; MRT inf [8]: 24.3 h
COc1cc2c(Oc3ccc(NC(=O)N/N=C/c4cc5ccccc5[nH]4)cc3F)ccnc2cc1OCCCN1CCCCC1	820 nM	980 nM	830 nM	–	780 nM	–
COc1cc2c(Oc3ccc(NC(=O)C4(C(=O)Nc5ccc(F)cc5)CC4)cc3F)ccnc2cc1OCCCN1CCOCC1 [FORETINIB]	–	–	–	–	–	Activity (Mus musculus [9]): Non-toxic; Activity (HT-29 [10]): 73.68%; Activity [11]: 78.23%; Activity (Mus musculus [12]): Non-toxic
COc1cc2c(Oc3ccc(NC(=S)N/N=C/c4ccc(F)c(F)c4)cc3F)ccnc2cc1OCCCN1CCCCC1	610 nM	1400 nM	740 nM	–	–	–
COc1cc2c(Oc3ccc(NC(=O)N/N=C/c4ccc(Cl)cc4Cl)cc3F)ccnc2cc1OCCCN1CCCCC1	370 nM	750 nM	460 nM	–	–	–
COc1cc2c(Oc3ccc(/C=N/NC(=O)Nc4ccccc4)cc3F)ccnc2cc1OCCCN1CCCCC1	190 nM	1200 nM	180 nM	25500 nM	280 nM	–
COc1cc2c(Oc3ccc(NC(=O)N/N=C/c4ccc(F)cc4Cl)cc3F)ccnc2cc1OCCCN1CCC(C)CC1	440 nM	1500 nM	530 nM	79500 nM	190 nM	–
COc1cc2c(Oc3ccc(NC(=O)N/N=C/c4ccc([N+](=O)[O-])cc4)cc3F)ccnc2cc1OCCCN1CCCC1	310 nM	970 nM	470 nM	–	460 nM	–
COc1ccc(/C=N/NC(=O)Nc2ccc(Oc3ccnc4cc(OCCCN5CCOCC5)c(OC)cc34)c(F)c2)cc1	900 nM	1900 nM	770 nM	17200 nM	–	–
COc1cc2c(Oc3ccc(NC(=O)N/N=C/c4ccc(C(F)(F)F)cc4)cc3F)ccnc2cc1OCCCN1CCC(C)CC1	740 nM	1300 nM	1000 nM	–	650 nM	–
COc1cc2c(Oc3ccc(NC(=S)N/N=C/c4ccc(Cl)cc4)cc3F)ccnc2cc1OCCCN1CCCCC1	190 nM	1300 nM	500 nM	–	–	–
C=CCc1cccc(/C=N/NC(=O)CN2CCN(Cc3ccccc3)CC2)c1O [PAC-1]	–	–	820 nM	124000 nM	–	–
COc1ccc(/C=N/NC(=O)Nc2ccc(Oc3ccnc4cc(OCCCN5CCCC5)c(OC)cc34)c(F)c2)cc1	690 nM	1300 nM	750 nM	26500 nM	680 nM	–
COc1cc2c(Oc3ccc(NC(=S)N/N=C/c4ccc(F)cc4Cl)cc3F)ccnc2cc1OCCCN1CCCCC1	420 nM	1400 nM	820 nM	34100 nM	230 nM	–

Structure (SMILES)	IC50 (HT-29 [1])	IC50 (MDA-MB-231)	IC50 [2]	IC50 (PBL)	IC50 (A549)	also measured
COc1cc2c(Oc3ccc(NC(=O)N/N=C/c4ccc(N(C)C)cc4)cc3F)ccnc2cc1OCCCN1CCCCC1	1000 nM	1400 nM	870 nM	–	–	–
COc1cc2c(Oc3ccc(/C=N/NC(=O)Nc4ccc(Br)cc4)cc3F)ccnc2cc1OCCCN1CCCCC1	270 nM	800 nM	60 nM	–	–	–
COc1cc2c(Oc3ccc(NC(=O)N/N=C/c4ccc(C(F)(F)F)cc4)cc3F)ccnc2cc1OCCCN1CCCCC1	660 nM	1100 nM	630 nM	–	660 nM	–
C=CCc1cccc(/C=N/NC(=O)Nc2ccc(Oc3ccnc4cc(OCCCN5CCCCC5)c(OC)cc34)c(F)c2)c1OC	460 nM	790 nM	670 nM	–	250 nM	–
COc1cc2c(Oc3ccc(NC(=O)N/N=C/c4ccc(C(F)(F)F)cc4)cc3F)ccnc2cc1OCCCN1CCCC1	810 nM	1800 nM	1300 nM	–	790 nM	–
COc1ccc(/C=N/NC(=O)Nc2ccc(Oc3ccnc4cc(OCCCN5CCCCC5)c(OC)cc34)c(F)c2)cc1	590 nM	840 nM	660 nM	126000 nM	540 nM	–
COc1cc2c(Oc3ccc(NC(=O)N/N=C/c4ccncc4)cc3F)ccnc2cc1OCCCN1CCCCC1	940 nM	1400 nM	980 nM	–	840 nM	–
COc1cc2c(Oc3ccc(NC(=O)N/N=C/c4cccs4)cc3F)ccnc2cc1OCCCN1CCCCC1	770 nM	1260 nM	740 nM	68700 nM	790 nM	–
COc1cc2c(Oc3ccc(NC(=O)N/N=C/c4ccc(OC(F)(F)F)cc4)cc3F)ccnc2cc1OCCCN1CCCCC1	510 nM	820 nM	630 nM	–	590 nM	–
COc1cc2c(Oc3ccc(NC(=O)N/N=C/c4ccc([N+](=O)[O-])cc4)cc3F)ccnc2cc1OCCCN1CCC(C)CC1	230 nM	870 nM	420 nM	–	380 nM	–
COc1cc2c(Oc3ccc(NC(=O)N/N=C/c4ccc(Cl)cc4Cl)cc3F)ccnc2cc1OCCCN1CCC(C)CC1	470 nM	910 nM	350 nM	–	–	–
COc1cc2c(Oc3ccc(/C=N/NC(=O)Nc4ccc(F)cc4Br)cc3F)ccnc2cc1OCCCN1CCCCC1	110 nM	1000 nM	140 nM	36400 nM	98 nM	Cmax (Mus musculus [3]): 73 ng/mL; Vd/F [4]: 346 L/kg; AUC (Mus musculus [5]): 1210 ng·h/mL; t1/2 (Mus musculus [6]): 5.07 h; Tmax (Mus musculus [7]): 7.33 h; MRT inf [8]: 14.8 h
COc1cc2c(Oc3ccc(NC(=O)N/N=C/c4ccc(O)cc4)cc3F)ccnc2cc1OCCCN1CCCCC1	470 nM	790 nM	850 nM	–	780 nM	–
COc1ccc(/C=N/NC(=O)Nc2ccc(Oc3ccnc4cc(OCCCN5CCCCC5)c(OC)cc34)c(F)c2)c(OC)c1	1600 nM	–	1990 nM	–	1400 nM	–
COc1cc2c(Oc3ccc(NC(=O)N/N=C/c4ccc([N+](=O)[O-])cc4)cc3F)ccnc2cc1OCCCN1CCOCC1	710 nM	1700 nM	750 nM	–	–	–
